{"source": "paper PMC11645656", "about": "“MRGPRX4 mediates phospho-drug associated pruritus in a humanized mouse model” (Science translational medicine, 2024)", "key": {"NP2-WT mice": {"system": "NP2-WT mice", "test": "Itch behavioral study (scratching bouts after subcutaneous nape injection) in littermate control NP2-WT mice", "type": "in vivo", "details": "30 min after injection of 50 μl 10 mM into the nape, each cell one mouse", "excerpt": "Fig. 2. Phosphate monoester prodrugs induce itch in NP2-MRGPRX4+ mice through activating NP2 primary sensory neurons. (A) Mating strategy to generate NP2-X4+ mice. (B) In situ hybridization showing MRGPRX4 transcripts (magenta) in NP2-X4+ DRG as indicated by arrowheads (left) but not in littermate control NP2-WT (right). NP2 subpopulation accounts for 5% of total DRG neurons. DAPI, blue. Scale bar, 50 μm. […] . Data are expressed as mean ± SEM. *p< 0.05, **p< 0.01 and ***p< 0.001 by two-tailed unpaired Student’s t-test. ns = no statistical significance observed. (D and E) Traces of average (top, depicted as mean ± 95% confidence interval) and individual (bottom, reflected by the heatmap) calcium activity, measured by fluorescence intensity normalized to the baseline intensity (FT/F0) over time of NP2-X4+ (D) and NP2-WT (E) DRG neurons labelled with GCaMP6s (n = 110–150 neurons pooled from 3–7 independent culture vessels from 2–4 mice in each condition). 10 μM phospho-drugs and 1 mM CQ were added as indicated by the arrowheads. Neurons with FT/F0 > 1.5 after compound application were considered a positive responder. NP2-X4+: NP2-MRGPRX4+; DRG, dorsal root ganglia; CQ: chloroquine.\n. All the animals used were heterozygous unless otherwise specified. NP2-X4+ and NP2-WT littermates were generated by crossing Mrgpra3-Cre to Rosa26-lsl-MRGPRX4 as detailed previously ([15]). NP2-X4+ mice were further crossed to homozygous Rosa26-lsl-GCaMP6s to obtain NP2-WT/GCaMP6s and NP2-X4+/GCaMP6s animals. A detailed mating strategy is illustrated in fig. S5. Pirt-Cre-GCaMP6s animals were acquired by crossing Pirt-Cre to homozygous Rosa26-lsl-GCaMP6s. Pirt-Cre animals were generated through homologous recombination as indicated previously ([37]). Rosa26-lsl-GCaMP6s mouse line was provided by Dr. Dwight Bergles’ lab at the Johns Hopkins School of Medicine."}, "MRGPRX4 (S83)": {"target": "T1, MRGPRX4 (S83) (Homo sapiens, UniProt Q96LA9, L83S)", "T1 construct": "expressed in transfected cells", "T1 sequence (Q96LA9 whole entry L83S)": "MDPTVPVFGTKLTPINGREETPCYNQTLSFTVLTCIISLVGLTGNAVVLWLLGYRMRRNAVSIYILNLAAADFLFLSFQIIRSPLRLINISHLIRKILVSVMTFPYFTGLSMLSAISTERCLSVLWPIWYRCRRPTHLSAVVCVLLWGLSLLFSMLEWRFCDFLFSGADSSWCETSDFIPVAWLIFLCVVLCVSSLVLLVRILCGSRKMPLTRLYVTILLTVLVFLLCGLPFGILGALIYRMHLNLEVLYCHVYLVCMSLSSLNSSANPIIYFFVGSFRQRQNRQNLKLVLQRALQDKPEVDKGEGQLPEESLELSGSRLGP", "test": "EC50 determination, intracellular calcium mobilization in MRGPRX4 stably expressed HEK293 cells (FLIPR Calcium 5, Flexstation-3)", "type": "cell-based", "set-up": "Fig. 1D dose-response, calcium mobilization response (individual replicate) / calcium mobilization response (Fig. 1D dose-response raw data): unit not given here", "details": "for calcium mobilization response (Fig. 1D dose-response raw data): individual replicate values", "in_short": "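HEK293 cells stably expressing receptor (parental HEK293 alongside) loaded with Calcium 5 dye in HBSS/20 mM HEPES, pH 7.4, 1 h at 37 °C, then compounds added. Response = peak minus pre-drug baseline, triplicates averaged; EC50 from 4PL fit.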"}, "[1]": {"details": "IV, clinical trials; ref New Drug Application: 020450; cited from earlier work"}, "[2]": {"system": "NP2-X4+ mice (MRGPRX4 in Mrgpra3+ NP2 sensory neurons)", "test": "Itch behavioral study (scratching bouts after subcutaneous nape injection) in NP2-X4+ mice", "type": "in vivo, mouse"}, "HTLA cells": {"system": "HTLA cells", "test": "PRESTO-Tango β-arrestin recruitment assay, parental HTLA cells without MRGPRX4 (control, fig. S1)", "type": "cell-based", "excerpt": "Supplement NIHMS2038790-supplement-table.xlsx, sheet \"fig. S1\" | column: Concentration (M)"}}, "note": "pEC50: −log10 of the molar value. Where “and” joins values, the source holds several entries; their conditions need not be identical. Equal entries are not always repeated."}
{"smiles": "O=C1NC(c2ccccc2)(c2ccccc2)C(=O)N1COP(=O)(O)O", "note": "[Fosphenytoin]", "values": [{"measurement": "Scratching bouts of individual animals", "setting": "NP2-WT mice", "value": "33 and 0 and 2 and 9 and 5 and 14 and 6 and 20 and 4"}, {"measurement": "pEC50", "setting": "MRGPRX4 (S83); MRGPRX4 stably expressed HEK293 cells, calcium mobilization, read-out: EC50", "value": 7.11}, {"measurement": "calcium mobilization response (Fig. 1D dose-response raw data)", "setting": "MRGPRX4 (S83); concentration 3.90625e-9 M", "value": "21.206 and 25.291 and 2.769 and 3.958 and -8.2623 and 8.875 and 8.837 and 9.145 and 8.934"}, {"measurement": "calcium mobilization response (Fig. 1D dose-response raw data)", "setting": "MRGPRX4 (S83); concentration 7.8125e-9 M", "value": "-14.542 and 13.805 and 7.794 and 12.8387 and 12.8087 and 12.5987 and 3.298 and 9.875 and 9.477"}, {"measurement": "calcium mobilization response (Fig. 1D dose-response raw data)", "setting": "MRGPRX4 (S83); concentration 1.5625e-8 M", "value": "19.866 and 22.527 and 5.041 and 1.449 and 6.253 and 14.7987 and -3.2365 and 13.5705 and -5.8765"}, {"measurement": "calcium mobilization response (Fig. 1D dose-response raw data)", "setting": "MRGPRX4 (S83); concentration 3.125e-8 M", "value": "57.235 and 30.337 and 81.497 and 17.5777 and 19.6667 and 31.6637 and -30.287 and 41.9265 and -1.7705"}, {"measurement": "calcium mobilization response (Fig. 1D dose-response raw data)", "setting": "MRGPRX4 (S83); concentration 6.25e-8 M", "value": "190.544 and 229.236 and 134.524 and 58.9937 and 67.8137 and 76.3827 and 88.4165 and 111.221 and 55.6105"}, {"measurement": "calcium mobilization response (Fig. 1D dose-response raw data)", "setting": "MRGPRX4 (S83); concentration 1.25e-7 M", "value": "316.003 and 301.004 and 304.213 and 117.536 and 116.768 and 79.1877 and 194.175 and 173.792 and 144.932"}, {"measurement": "calcium mobilization response (Fig. 1D dose-response raw data)", "setting": "MRGPRX4 (S83); concentration 2.5e-7 M", "value": "345.7 and 324.779 and 337.838 and 121.175 and 136.568 and 118.794 and 200.38 and 226.084 and 171.163"}, {"measurement": "calcium mobilization response (Fig. 1D dose-response raw data)", "setting": "MRGPRX4 (S83); concentration 5e-7 M", "value": "387.516 and 373.964 and 353.304 and 134.73 and 112.159 and 119.649 and 195.132 and 238.81 and 185.954"}, {"measurement": "calcium mobilization response (Fig. 1D dose-response raw data)", "setting": "MRGPRX4 (S83); concentration 1e-6 M", "value": "410.183 and 413.027 and 415.898 and 143.736 and 123.579 and 132.916 and 226.932 and 271.213 and 250.762"}, {"measurement": "calcium mobilization response (Fig. 1D dose-response raw data)", "setting": "MRGPRX4 (S83); concentration 2e-6 M", "value": "394.314 and 370.112 and 382.271 and 127.759 and 125.948 and 138.324 and 218.164 and 295.676 and 255.523"}, {"measurement": "Hill coefficient", "setting": "MRGPRX4 (S83); dose-response curve fitting, table S1", "value": 1.917}, {"measurement": "Patients who reported itch", "setting": "[1]", "value": 48.9, "unit": "%"}, {"measurement": "Scratching / itch behavior, NP2-X4+ mice vs WT littermates", "setting": "[2]; 50 μl 10 mM nape injection, 30 min", "value": "significantly increased scratching behavior"}, {"measurement": "Scratching bouts of individual animals", "setting": "[2]; NP2-X4+, 30 min after injection of 50 μl 10 mM into the nape, each cell one mouse", "value": "32 and 55 and 37 and 89 and 49 and 39 and 73 and 83 and 25 and 94"}, {"measurement": "PRESTO-Tango response (fig. S1), single replicate", "setting": "HTLA cells; concentration 3.91e-6 M", "value": "0.004928 and 0.004598 and 0.01112 and 0.01116 and 0.003197 and 0.004271"}, {"measurement": "PRESTO-Tango response (fig. S1), single replicate", "setting": "HTLA cells; concentration 7.81e-6 M", "value": "0.007499 and 0.005683 and 0.007727 and 0.01002 and 0.00431 and 0.008159"}, {"measurement": "PRESTO-Tango response (fig. S1), single replicate", "setting": "HTLA cells; concentration 1.56e-5 M", "value": "0.004669 and 0.01023 and 0.009474 and 0.01705 and 0.007507 and 0.01409"}, {"measurement": "PRESTO-Tango response (fig. S1), single replicate", "setting": "HTLA cells; concentration 3.13e-5 M", "value": "0.006626 and 0.01061 and 0.0114 and 0.01987 and 0.004604 and 0.008542"}, {"measurement": "PRESTO-Tango response (fig. S1), single replicate", "setting": "HTLA cells; concentration 6.25e-5 M", "value": "0.01361 and 0.01504 and 0.01581 and 0.04311 and 0.006432 and 0.0129"}, {"measurement": "PRESTO-Tango response (fig. S1), single replicate", "setting": "HTLA cells; concentration 0.00025 M", "value": "0.01688 and 0.03926 and 0.02383 and 0.08171 and 0.008888 and 0.02076"}, {"measurement": "PRESTO-Tango response (fig. S1), single replicate", "setting": "HTLA cells; concentration 0.0005 M", "value": "0.0416 and 0.04542 and 0.03124 and 0.09673 and 0.01269 and 0.03191"}, {"measurement": "PRESTO-Tango response (fig. S1), single replicate", "setting": "HTLA cells; concentration 0.001 M", "value": "0.01837 and 0.05513 and 0.03077 and 0.1069 and 0.01168 and 0.03953"}, {"measurement": "PRESTO-Tango response (fig. S1), single replicate", "setting": "HTLA cells; concentration 0.002 M", "value": "0.01971 and 0.05409 and 0.03051 and 0.1054 and 0.01079 and 0.03852"}, {"measurement": "PRESTO-Tango response (fig. S1), single replicate", "setting": "HTLA cells; concentration 0.004 M", "value": "0.01886 and 0.05018 and 0.02929 and 0.08185 and 0.01164 and 0.032"}]}
